Test results as given in patent US12441725B2, “ISO-citrate dehydrogenase (IDH) inhibitor” (ZHEJIANG METON PHARMACEUTICAL CO., LTD, priority 2019, dated 2025).

What was measured:
[1] = target: T1, IDH (endogenous IDH1 R132C) in HT1080 cell (Homo sapiens, UniProt O75874, R132C); test: Cell-based assay for IDH inhibition (decrease of D-2-HG) in HT1080 cells; conditions: human fibrosarcoma cell line HT1080, 16 hours treatment, D-2-HG by LC-MS, in triplet
T1 construct: which harbor endogenous heterozygous IDH1 R132C and R132H mutation respectively and accumulate D-2-HG
Excerpt: The present disclosure also provides a cell-based method for assaying IDH inhibition and selectivity of the compounds in human fibrosarcoma cell line HT1080 and cholangiocarcinoma cell line HCCC 9810, which harbor endogenous heterozygous IDH1 R132C and R132H mutation respectively and accumulate D-2-HG. Tumor -derived IDH mutant lost its normal activity of producing α-KG, and gained a new activity of producing D-2-HG. D-2-HG is a metabolite specifically elevated in tumor cells expressing mutant IDH1 or IDH2 proteins. When treating such mutant IDH-expressing tumor cells with an effective IDH inhibitor, the synthesis of D-2-HG is blocked, and D-2-HG concentration is decreased by the oxidation reaction catalyzed by the endogenous D-2-HG dehydrogenase.
To perform a cell-based IDH inhibition assay, HT1080 and HCCC 9810 cells (or other cell lines harboring different IDH mutations) are cultured in DMEM supplemented with 10% FBS. The cells are treated with compounds of present disclosure at various different concentrations. 16 hours after the treatment, culture medium supernatants are removed and cell metabolites are extracted by 40% methanol and 40% acetonitrile in water (pre-chilled under −80° C.) at 4° C. for 1 hour. The extract supernatants are collected and cell debris are removed via high speed centrifugation. The resulting metabolite extracts are analyzed on an Agilent LC-MS system (model: 1290-6470) for 2-HG and glutamate concentration. A HILIC-Z column (2.1 mm×100 mm, […]) is employed on HPLC. Mobile phase A is 15 mM CH3COONH4 and 0.3% NH3·H2O in water. Mobile phase B is 15 mM CH3COONH4 and 0.3% NH3·H2O in 90% MeCN/10% H2O solvent. An 19% solvent A and 81% solvent B isocratic gradient method is used at a flow rate of 0.3 ml/min. D-2-HG is ionized under negative ion spray mode and detected through the multiple-reaction monitoring of a mass transition pair at m/z=147.0/128.9 and 147.0/85.1. Glutamate is ionized under ion spray mode and detected on negative polarity multiple-reaction monitoring of a mass transition pair at m/z=146/102 and 146/128 and its level is used to normalize 2-HG concentration. The activity of cellular mutant IDH proteins in the presence of each test compound at different concentrations can be represented by relative D-2-HG concentration to negative control samples (i.e., cells are treated with DMSO only), and the IC50 value could be determined to evaluate the inhibition and selectivity of each test compound on the IDH enzymatic activity.
The IDH inhibition activity of the compounds were assessed in human fibrosarcoma cell line HIT1080 according to Test 3 of the Biological Assay section. The test for IDH inhibition of each compound was carried out in triplet. As used in Table 6, “A” refers to an IDH inhibitory activity with an IC50<0.1 μM; “B” refers to an IDH inhibitory activity with an IC50 from 0.1 μM to 0.5 μM; “C” refers to an IDH inhibitory activity with an IC50 from 0.5 μM to 1 μM; “D” refers to an IDH inhibitory activity with an IC50>1 μM.

[2] = target: T2, IDH1 R132H (Homo sapiens, UniProt O75874, R132H); test: Biochemical assay for IDH inhibition (NADPH fluorescence), mutant IDH1 R132H; conditions: 50 nM IDH1-R132H, 1 hour pre-incubation, in triplet
T2 construct: 6xHis
Excerpt: (§1) The present disclosure provides a biochemical assay method for detecting the IDH inhibition and selectivity of the compounds by detecting IDH enzyme activity directly.
(§2) Wild-type IDH enzymes convert NADP^+ to NADPH when catalyzing the α-KG producing reaction. Mutant IDH enzymes convert NADPH to NADP^+ when catalyzing the D-2-HG producing reaction. So, the activity of wild-type and mutant IDH1/2 could be measured by monitoring NADPH level change as NADPH is fluorescent (Excitation 340 nm, Emission 460 nm). By monitoring the change of NADPH level in the reaction, the enzyme activity could be determined rapidly and efficiently and IC50 of a compound could also be assayed.
(§3) The test compounds are prepared into 50 mM stock solutions in DMSO and stored at −20° C. Each test compound stock is further diluted to obtain a 100× stock solution at a concentration of 400 μM, 200 μM, 100 μM, 50 μM, 25 μM, 12.5 μM, 6.25 μM and 3.125 μM, respectively, for the final use on the day of test (the concentration range of 100× stock solutions might be adjusted to cover the estimated IC50 of a specific test compound).
(§4) Inhibition of Mutant IDH1 (R132H or R132C):
(§5) To assay the enzymatic activity of mutant IDH1 proteins, 25 nM IDH1-R132C or 50 nM IDH1-R132H protein solutions are prepared in 20 mM Tris-HCl pH7.5, 150 mM NaCl, 10 mM MgCl2, 1 mM DTT, 0.05 mg/ml BSA and 1.33 mM α-KG. 148 μL 25 nM IDH1-R132C or 50 nM IDH1-R132H protein solutions are mixed with 2 μL DMSO (vehicle control for test compounds) or an above-mentioned 100× stock solution of a test compound and incubated for 1 hour at room temperature. Extra reactions containing 148 μL no-enzyme solution (20 mM Tris-HCl pH7.5, 150 mM NaCl, 10 mM MgCl2, 1 mM DTT, 0.05 mg/ml BSA and 1.33 mM α-KG) and 2 μL DMSO are also set up as background controls. Then each reaction is initiated by adding 50 μL 80 μM NADPH solution prepared in 20 mM Tris-HCl pH7.5, 150 mM NaCl, 10 mM MgCl2, 1 mM DTT and 0.05 mg/ml BSA. BioTek Synergy H1 Microplate reader (BioTek Instruments Inc., Winooski, U.S.) is employed to monitor the NADPH fluorescence (Excitation 340 nm, Emission 460 nm) every 42 seconds for 15 minutes. NADPH change rate is determined according to the linear phase of the fluorescence-time curve and results from the background control reactions are used as background subtraction to calculate the net NADPH change rates of other reactions. The net NADPH change rates from the vehicle control reactions are used as 100% enzymatic activity and thus the relative enzymatic activity of reactions with test compounds added could be determined. Then a dose-response curve is drawn for each test compound and the corresponding IC50 is calculated. The IC50 value is used to evaluate the inhibition and selectivity of each test compound on the IDH enzymatic activity.
(§6) The IDH inhibition activity of the compounds were assessed according to Test 2 of the Biological Assay section. The test for mutant IDH1 R132H and IDH1 R132C inhibition of each compound was carried out in triplet. As used in Table 5, “A” refers to an inhibitory activity against IDH1 R132H or IDH1 R132C with an IC50<0.1 μM; “B” refers to an inhibitory activity against IDH1 R132H or IDH1 R132C with an IC50 from 0.1 μM to 0.5 μM; “C” refers to an inhibitory activity against IDH1 R132H or IDH1 R132C with an IC50 from 0.5 μM to 1 μM; “D” refers to an inhibitory activity against IDH1 R132H or IDH1 R132C with an IC50>1 μM.

[3] = target: T3, IDH1 R132C (Homo sapiens, UniProt O75874, R132C); test: Biochemical assay for IDH inhibition (NADPH fluorescence), mutant IDH1 R132C; conditions: 25 nM IDH1-R132C, 1 hour pre-incubation, in triplet
T3 construct: 6xHis
Excerpt: as §1, §2, §3, §4, §5, §6

T1 sequence (O75874 2-414 R132C): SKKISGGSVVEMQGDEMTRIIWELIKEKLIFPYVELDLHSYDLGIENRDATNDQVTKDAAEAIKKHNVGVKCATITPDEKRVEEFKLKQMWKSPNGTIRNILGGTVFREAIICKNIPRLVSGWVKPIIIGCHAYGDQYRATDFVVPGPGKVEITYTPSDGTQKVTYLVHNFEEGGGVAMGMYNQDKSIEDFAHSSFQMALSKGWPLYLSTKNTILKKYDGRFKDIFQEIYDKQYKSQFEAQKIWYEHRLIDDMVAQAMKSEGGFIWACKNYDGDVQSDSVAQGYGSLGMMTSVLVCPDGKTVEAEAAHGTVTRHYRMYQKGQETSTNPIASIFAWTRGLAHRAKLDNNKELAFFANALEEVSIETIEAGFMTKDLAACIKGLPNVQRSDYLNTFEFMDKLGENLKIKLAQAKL
T2 sequence (O75874 whole entry R132H): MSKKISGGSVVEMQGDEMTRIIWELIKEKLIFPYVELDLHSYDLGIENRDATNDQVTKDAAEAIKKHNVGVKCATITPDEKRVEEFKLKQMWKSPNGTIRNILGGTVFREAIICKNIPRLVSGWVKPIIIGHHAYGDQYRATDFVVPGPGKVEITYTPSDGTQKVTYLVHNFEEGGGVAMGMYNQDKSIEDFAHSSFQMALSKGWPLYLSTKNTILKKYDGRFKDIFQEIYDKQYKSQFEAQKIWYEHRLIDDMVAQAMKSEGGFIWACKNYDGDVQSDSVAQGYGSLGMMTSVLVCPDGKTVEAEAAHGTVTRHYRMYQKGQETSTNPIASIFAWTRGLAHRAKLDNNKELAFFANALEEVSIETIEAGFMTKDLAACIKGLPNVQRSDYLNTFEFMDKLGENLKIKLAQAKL
T3 sequence (O75874 whole entry R132C): as the sequence (O75874 whole entry R132H) above, with H132C counted along it

Row | SMILES | IC50 [1] [nM] | IC50 [2] [nM] | IC50 [3] [nM]
1 | CCN1Cc2c(ccnc2N[C@@H](C)c2ccc(Oc3cccnc3)c(F)c2)C1=O [Compound 13, (S)-2-ethyl-4-((1-(3-fluoro-4-(pyridin-3-yloxy)phenyl)ethyl)amino)-2,3-dihydro-1H-pyrrolo[3,4-c]pyridin-1-one] | > 1000 | > 1000 | > 1000
2 | CCN1Cc2c(ccnc2N[C@@H](C)c2ccc(OC3CCCCC3)c(F)c2)C1=O [Compound 14, (S)-4-((1-(4-(cyclohexyloxy)-3-fluorophenyl)ethyl)amino)-2-ethyl-2,3-dihydro-1H-pyrrolo[3,4-c]pyridin-1-one] | > 1000 | > 1000 | > 1000
3 | CCN1Cc2c(ccnc2N[C@@H](C)c2ccc(OC3CCCC3)c(F)c2)C1=O [Compound 15, (S)-4-((1-(4-(cyclopentyloxy)-3-fluorophenyl)ethyl)amino)-2-ethyl-2,3-dihydro-1H-pyrrolo[3,4-c]pyridin-1-one] | > 1000 | 100 to 500 | 500 to 1000
4 | Cc1ccc(Oc2ccc([C@H](C)Nc3nccc4c3CN(CCF)C4=O)cc2F)cc1 [Compound 16, (S)-4-((1-(3-fluoro-4-(p-tolyloxy)phenyl)ethyl)amino)-2-(2-fluoroethyl)-2,3-dihydro-1H-pyrrolo[3,4-c]pyridin-1-one] | > 1000 | 500 to 1000 | 500 to 1000
5 | Cc1ccc(Oc2ccc([C@H](C)Nc3nccc4c3CN(CC(F)F)C4=O)cc2F)cc1 [Compound 17, (S)-2-(2,2-difluoroethyl)-4-((1-(3-fluoro-4-(p-tolyloxy)phenyl)ethyl)amino)-2,3-dihydro-1H-pyrrolo[3,4-c]pyridin-1-one] | > 1000 | 100 to 500 | 100 to 500
6 | CCN1Cc2c(N[C@@H](C)c3ccc(Oc4ccc(C)cc4)c(F)c3)ncc(F)c2C1=O [Compound 18, (S)-2-ethyl-7-fluoro-4-((1-(3-fluoro-4-(p-tolyloxy)phenyl)ethyl)amino)-2,3-dihydro-1H-pyrrolo[3,4-c]pyridin-1-one] | > 1000 | 100 to 500 | > 1000
7 | CCN1Cc2c(N[C@@H](C)c3ccc(OC4CCCC4)c(F)c3)ncc(F)c2C1=O [Compound 19, (S)-4-((1-(4-(cyclopentyloxy)-3-fluorophenyl)ethyl)amino)-2-ethyl-7-fluoro-2,3-dihydro-1H-pyrrolo[3,4-c]pyridin-1-one] | > 1000 | > 1000 | > 1000
8 | CCN1Cc2c(ccnc2N[C@@H](C)c2cc(F)c(Oc3ccc(C)cc3)cc2F)C1=O [Compound 20, (S)-4-((1-(2,5-difluoro-4-(p-tolyloxy)phenyl)ethyl)amino)-2-ethyl-2,3-dihydro-1H-pyrrolo[3,4-c]pyridin-1-one] | 500 to 1000 | 100 to 500 | 100 to 500
9 | CCN1Cc2c(ccnc2N[C@@H](C)c2cc(F)c(Oc3ccc4c(ccn4C)c3)cc2F)C1=O [Compound 21, (S)-4-((1-(2,5-difluoro-4-((1-methyl-1H-indol-5-yl)oxy)phenyl)ethyl)amino)-2-ethyl-2,3-dihydro-1H-pyrrolo[3,4-c]pyridin-1-one] | > 1000 | < 100 | 100 to 500
10 | CCN1Cc2c(ccnc2N[C@@H](C)c2cc(F)c(OC3CC(C)CC(C)(C)C3)cc2F)C1=O (stereo partly drawn) [Compound 22, 4-(((1S)-1-(2,5-difluoro-4-((3,3,5-trimethylcyclohexyl)oxy)phenyl)ethyl)amino)-2-ethyl-2,3-dihydro-1H-pyrrolo[3,4-c]pyridin-1-one] | < 100 | < 100 | < 100
11 | CCN1Cc2c(ccnc2N[C@@H](C)c2cc(F)c(O[C@@H]3C[C@@H](C)CC(C)(C)C3)cc2F)C1=O [Compound 23, 4-(((S)-1-(2,5-difluoro-4-(((1R,5S)-3,3,5-trimethylcyclohexyl)oxy)phenyl)ethyl)amino)-2-ethyl-2,3-dihydro-1H-pyrrolo[3,4-c]pyridin-1-one] | < 100 | < 100 | < 100
12 | CCN1Cc2c(ccnc2N[C@@H](C)c2cc(F)c(O[C@H]3C[C@@H](C)CC(C)(C)C3)cc2F)C1=O [Compound 24, 4-(((S)-1-(2,5-difluoro-4-(((1S,5S)-3,3,5-trimethylcyclohexyl)oxy)phenyl)ethyl)amino)-2-ethyl-2,3-dihydro-1H-pyrrolo[3,4-c]pyridin-1-one] | < 100 | < 100 | < 100
13 | CCN1Cc2c(ccnc2N[C@@H](C)c2ccc(Oc3ccnc(C(C)(C)C)c3)c(F)c2)C1=O [Compound 25, (S)-4-((1-(4-((2-(tert-butyl)pyridin-4-yl)oxy)-3-fluorophenyl)ethyl)amino)-2-ethyl-2,3-dihydro-1H-pyrrolo[3,4-c]pyridin-1-one] | 500 to 1000 | 100 to 500 | 100 to 500
